In patent US7803783B2, “Use of WNT inhibitors to augment therapeutic index of chemotherapy” (The Board of Trustees of the Leland Stanford Junior …, priority 2002, dated 2010):

Legend:
human bone marrow HSCs = assay: Proliferation of human bone marrow HSCs with soluble Wnt3a; format: cell-based; conditions: absence of any other growth factor
HSCs = assay: Transplantation of Wnt3A-treated HSCs into lethally irradiated recipient mice; format: in vivo, mouse
Method: To test whether the cells treated with purified Wnt3A underwent self-renewal functionally, purified HSCs were plated as 1 cell or as 10 cells, treated with Wnt3A and each well containing proliferating cells transplanted individually into lethally irradiated recipient mice along with 300,000 Sca-1^− Bone Marrow cells (A). […] Since the empirically observed frequency of reconstitution of resting HSCs is ˜10% and of cycling HSCs ˜2%, the observed frequency of reconstitution of 100% for 1 plated cells is consistent with Wnt3A inducing a 10- to 50-fold increase in HSC activity, a range similar to that seen with BCL-2 transgenic HSCs.
In vivo analysis of HSC function.

[1] = tested on: LEF-1/TCF reporter (TOP-dGFP); assay: Lentiviral LEF-1/TCF reporter assay in HSCs in vitro; format: cell-based, mouse; conditions: HSCs stimulated with Wnt3a about 100 ng/ml
[2] = tested on: wild type mouse bone marrow HSCs; assay: In vitro HSC proliferation assay with purified Wnt3A; format: cell-based
Method: FIGS. 5A-5D. Wild Type HSCs proliferate to purified Wnt3A. Purified wild type mouse bone marrow HSCs were sorted by FACS and plated at 5 or 10 cells/well into 60 well Terasaki plates. Cells were incubated in X-vivo 15 (Bio Whittaker), 10% FBS, 5×10^−5M 2-Mercaptoethanol, and 1×10^−4M random methylated beta-cyclodextrin (CTD, Inc.) in the presence of either purified Wnt3A (at approx. 100 ng/ml) plus SLF (10 ng/ml) or SLF (10 ng/ml) alone, as a control. (SLF dose required ranged from 7.5 ng/ml-100 ng/ml depending on mouse strain used). Cell growth was monitored over a period of 7-9 days in culture, and is shown as total cell response (A) and the average frequency of responding wells (B) representative of over 9 independent experiments. To determine phenotypic characteristics, cells were plated in bulk (3500 cells) in 96 well plates and incubated in the presence of purified or unpurified Wnt3A.
Purified Wnt protein can regulate HSC self-renewal in the same manner as β-catenin in BCL-2 transgenic HSCs. To ensure that this response was not dependent on BCL-2 over-expression, we specifically tested whether wild type HSCs respond in a similar manner to purified Wnt3A as well. Over a period of days, HSCs plated at 1-20 cells per well, responded extremely robustly to Wnt3A in contrast to control conditions (e.g. 184 cells versus 0 when plated at 5 cells/well) (FIG. 5). The average frequency of cells that responded to Wnt3A over 3 independent experiments was 17-fold more than the proliferation to control conditions (limiting dose of SLF) when plated at 10 cells/well. […] Furthermore, the phenotypic characteristics of HSCs treated with purified or unpurified Wnt3A were dramatically different. […] Furthermore, a significant fraction of the lineage negative population expressed c-Kit and Sca-1 consistent with a HSC phenotype (D).
In vitro HSC proliferation assays. Freshly purified or virally transduced HSCs were plated at 1 to 20 cells per well in Terasaki plates. Cells were sorted into wells containing serum-free medium (X-vivo15, BioWhittaker) supplemented with 5×10^−5 M 2-mercaptoethanol and the indicated growth factors. Proliferation was monitored by counting the number of cells in each well at defined intervals. For longer-term cultures, transduced HSCs were plated in 96-well plates in the absence or presence of SLF (1 ng ml^−1), and the number of cells generated was monitored by cell counting at defined intervals. For inhibition of growth by CRD or axin, cells were cultured in the presence of mitogenic factors (SLF (30 ng ml^−1), Flt-3L (30 ng ml^−1), interleukin-6 (10 ng ml^−1)).

Substance: Wnt3a
- proliferation of highly purified human bone marrow HSCs (human bone marrow HSCs): induces proliferation
- frequency of reconstitution (HSCs; 1 plated cell treated with Wnt3A): 100%
- reconstitution efficiency (HSCs; wells plated with 10 cells or 5 cells): 100%
- TOP-dGFP reporter activity (GFP expression) [1]: significant reporter activity
- average frequency of cells that responded relative to control conditions ([2]; 10 cells/well, 3 independent experiments, control limiting dose of SLF): 17 fold
- lineage marker phenotype of treated HSCs ([2]; after 7 days in culture): negative for lineage markers
- total cell response ([2]; plated at 5 cells/well, control 0): 184 cells
- numbers of progeny generated by singly plated HSCs compared with control conditions ([2]; singly plated HSCs, presence of Wnt3a): six-fold
